In patent US10905757B2, “Cross-reactive T cell epitopes of HIV, SIV, and FIV for vaccines in humans and cats” (priority 2012, dated 2021):
“Also recorded” adds a separate entry of the source. Marks after values point to notes of the source that are not given here. Ends that are not written are not given here.

Key:
Format in all cases: cell-based, human
[1] = tested on: CD4+ or CD8+ T cells from HIV+ subjects; assay: Intracellular cytotoxin staining (ICS), CD4+ or CD8+ T cells from HIV+ responders; details: for cytotoxin and CD107a expression in CD4+ and CD8+ T cells (in words): p24 peptides
Procedure: Briefly, 1×10^6PBMCs (freshly isolated) are stimulated with 20 μg of peptides for 6 hours in a total volume of 200 μL in a 96-well plate in presence of Golgi transport inhibitor (37° C., 5% CO2). […] Cells were stained with the LIVE/DEAD® fixable yellow dye (Invitrogen, Eugene, Oreg.). […] The flow cytometry data is collected using BD LSRII and analyzed with the FACS DIVA software.
The cells were subsequently fixed and permeabilized with Cytofix/Cytoperm solution (BD Biosciences) before reaction with anti-cytotoxin antibodies. The antibodies consisted of anti-CD3 APC-H7, anti-CD4 BD Horizon V450, and anti-CD8 FITC followed by anti-GrzB Alexa 700 and anti-GrzA PE (all from BD Biosciences), and anti-perforin PerCP (Abcam, Boston, Mass.).
(§1) In both analyses, 1.0-2.0×10^4 cells were fixed in phosphate-buffered saline (PBS) containing 2% paraformaldehyde and analyzed on BD LSRII using […] Software (BD Biosciences), with a positive threshold of 3% CFSE^low for CFSE-proliferation and 1% T cells expressing cytotoxin for ICS. The final value for each subject was derived after subtraction of the subject's medium control and the average value of peptide-stimulated cells from uninfected control subjects.
Flow cytometry (FACS) for measuring CFSE-proliferation and intracellular cytokine staining (ICS).
Both analyses were performed with BD LSRII and […]™ Software (BD Biosciences), using a positive threshold of >1% CFSE^low for CFSE-proliferation except for ICS studies with threshold of >0.1% T cells expressing cytotoxin.

[2] = tested on: CD4+ T cells from HIV+ subjects; assay: Intracellular cytotoxin staining (ICS), CD4+ T cells from HIV+ subjects; set-up: key to CD4^+ T-cell cytotoxins (4C): positive (+); negative (−) response; inhibitory (↓); not done (n); details: HIV^+ subjects compared to HIV^− control group
Procedure: (§2) Briefly, 1×10^6PBMCs (freshly isolated) are stimulated with 20 μg of peptides for 6 hours in a total volume of 200 μL in a 96-well plate in presence of Golgi transport inhibitor (37° C., 5% CO2). The cells are processed as previously described (Horton et al. (2007)). Cells were stained with the LIVE/DEAD® fixable yellow dye (Invitrogen, Eugene, Oreg.). The monoclonal antibodies fluorochome-conjugated to human cytokines used are: APC-H7 to CD3 (clone SK7); BD Horizon V450 to CD4 (clone RPA-T4); Qdot to CD8 (clone 3B5); PE-cy7 to IFN-γ (clone 4S.B3); APC to IL-2 (clone MQ1-17H12) PerCP to perforin (clone B-D48); Alexa F1.700 to granzyme-B (clone GB11) and PE to granzyme-A (clone CB9). The flow cytometry data is collected using BD LSRII and analyzed with the FACS DIVA software.
(§3) The ICS analysis (Horton et al. (2007)) involved stimulating 0.5-1.0×10^6 freshly isolated PBMC for 6 h with the same peptide stimulant and culture conditions as the proliferation analysis in the presence of 1 μg/mL of Golgi transport inhibitor and monensin followed by labeling with LIVE/DEAD fixable yellow dye and then treatment with anti-CD16/CD32 antibody and T-cell phenotypic antibodies. The cells were subsequently fixed and permeabilized with Cytofix/Cytoperm solution (BD Biosciences) before reaction with anti-cytotoxin antibodies. The antibodies consisted of anti-CD3 APC-H7, anti-CD4 BD Horizon V450, and anti-CD8 FITC followed by anti-GrzB Alexa 700 and anti-GrzA PE (all from BD Biosciences), and anti-perforin PerCP (Abcam, Boston, Mass.).
as §1
(§4) Flow cytometry (FACS) for measuring CFSE-proliferation and intracellular cytokine staining (ICS). Carboxyfluorescein diacetate succinimide ester (CFSE)-proliferation analysis was performed according to the manufacturer's protocol (Invitrogen) and processed as previously described (Lichterfeld et al. 2004) using the following modification: 2.5-5.0×10^5 CFSE-labeled PBMC stimulated for 4-5 days (37° C., 5% CO2) with 15-30 μg of peptides in culture media (AIM V medium, 25 μg/mL gentamycin, and 10% heat-inactivated fetal bovine serum). The ICS analysis was performed as previously described (Horton et al. 2007; Pattacini et al. 2012).
(§5) The antibodies used for the proliferation analysis consisted of anti-CD4 allophycocyanin (APC) anti-CD3 APC-H7, and anti-CD8 Pacific Blue, and those for ICS were anti-CD3 APC-H7, anti-CD4 BD Horizon V450, anti-CD8 FITC, anti-granzyme B (GrzB) Alexa 700, anti-granzyme A (GrzA) PE (BD Biosciences, Cat #555349, 560176, 558207, 560345, 555366, 560213, 558904), and anti-perforin PerCP (Abcam, Cat #ab86319). Both analyses were performed with BD LSRII and […]™ Software (BD Biosciences), using a positive threshold of >1% CFSE^low for CFSE-proliferation except for ICS studies with threshold of >0.1% T cells expressing cytotoxin. The final value for each subject was derived after subtracting the result of each HIV^+ subject with the media control followed by subtraction with the average response of the media-control subtracted HIV^− subjects.

[3] = tested on: CD8+ T cells from HIV+ subjects; assay: Intracellular cytotoxin staining (ICS: perforin, GrzA, GrzB, CD107a), CD8+ T cells from HIV+ subjects; set-up: key to CD8^+ T-cell cytotoxins (8C): positive (+); negative (−) response; inhibitory (↓); not done (n)
Procedure: as §2, §3, §1, §4, §5

PBMC from HIV+ subjects = assay: IFNγ ELISpot, PBMC from HIV+ subjects; details: for IFNγ (positive/total): positive responses over total tested, F3 responders (H3 responders for H3-3)
Procedure: 1.0×10^5-2.0×10^5 PBMCs were stimulated with peptides (15 μg peptide/well) in ELISpot plates for 18 hours in AIMS V medium (at 10% normal human serum). The spots were counted with an ELISpot reader and adjusted to spot forming units (SFU) per 10^6 cells.
Positive reactivity was defined at ≥70 SFU/10^6 cells after subtracting the background derived from non-specific peptide control or media control, and the average of 3 HIV-1 negative controls (<30 SFU/10^6 cells).
ELISpot assays. Enzyme-linked immunosorbent spot assays (ELISpot) for IFNγ (R&D Systems, Minneapolis, Minn.) were performed with AIM V medium containing 5% heat-inactivated (56° C., 30 min) human serum as previously described (Abbott et al. (2012)). The PBMC from HIV+ subjects were stimulated with either peptide pool (4-5 consecutive peptides per pool at 5 μg per peptide) or individual peptide (15 μg/well). The peptides were 11-16 aa in length with 8-10 aa overlap. The results were analyzed with an ELISpot reader (MVS Pacific LLC, Minneapolis, Minn.) and adjusted to spot forming units (SFU) per 10^6 cells, after subtraction of the average medium control for each subject. The PBMC from HIV+ subjects were stimulated with T-cell mitogen, phytohemaglutinin A (PHA, 5 μg/mL), as positive control. At a positive threshold of 70 SFU, HIV− subjects had no substantial IFNγ responses (>50 SFU) to HIV and FIV peptide pools.
ELISpot assays. Human enzyme-linked immunosorbent spot assays (ELISpot) (R&D Systems, Cat #XEL285) which measure IFNγ production were performed (Abbott et al. 2011). The positive threshold for human IFNγ responses was >50 spot forming units (SFU)/10^6 cells. The final value for each subject was derived after subtracting the result of each HIV^+ subject with the media control followed by subtraction with the average response of the HIV^− subjects which was rarely more than 10 SFU.

[4] = tested on: CD3+CD8+ T cells from HIV+ subjects; assay: CFSE-proliferation, CD3+CD8+ T cells from HIV+ subjects; details: for CD8^+ T Proliferation (positive/total): positive responses over total tested, F3 responders (H3 responders for H3-3)
Procedure: (§6) 2×10^5-5×10^5 CFSE labeled PBMCs were incubated with 15-20 μg of peptides in 600 μL of RPMI media with 10% FBS for 5 days at 37° C. (5% CO2). After harvesting, they were labeled with allophycocyanin (APC), APC-H7, and Pacific Blue labeled monoclonal antibodies (MAb) to human CD3, CD4, and CD8, respectively and analyzed for T-cell proliferation by flow cytometry using BD LSRII (BD Biosciences). The proliferating CD4^+ or CD8^+ T cell populations were defined from the CD3^+ cell population as either CD3^+CD8^+ or CD3^+CD4^+T cells (mutually exclusive) with low CFSE (CFSE^low) staining.
(§7) Flow cytometry (FACS) for carboxyfluoresein diacetate succinimide ester (CFSE)-proliferation and intracellular cytotoxin staining (ICS). The CFSE-proliferation analysis was performed on PBMC according to the manufacturer's protocol (Invitrogen, Carlsbad, Calif.) and processed as previously described (Lichterfeld et al. (2004)). Modifications consisted of using 2.0-5.0×10^5 CFSE-labeled cells stimulated for 5 days (37° C., 5% CO^2) with 30 μg/well of total peptides in a pool (15 μg/well for individual peptide, Table 10) or 5 μg/mL PHA in AIM V medium containing 25 μg/mL of gentamycin and 10% heat-inactivated human serum. Subsequently these cells were harvested and labeled with the LIVE/DEAD fixable yellow dye (Invitrogen) and then treated 5 min with anti-CD16/CD32 antibody (Biolegend, San Diego, Calif.) for blocking non-specific binding before phenotype-specific antibodies. The following antibodies were used for the CFSE-proliferation analysis: anti-CD4 APC, anti-CD3 APC-H7, and anti-CD8 Pacific Blue (BD Biosciences, San Jose, Calif.).
as §1, §4, §5

[5] = tested on: CD3+CD4+ T cells from HIV+ subjects; assay: CFSE-proliferation, CD3+CD4+ T cells from HIV+ subjects
Procedure: as §6, §7, §1, §4, §5

[6] = responders to Fp9 or Fp14 peptide pools
[7] = average positive values, responders to Fp9 or Fp14 peptide pools
[8] = responders/tested, small 9-13mer peptides, yr 4, responders to Fp9 or Fp14 pool via both proliferation and IFNγ
[9] = small 9-13mer peptides, yr 4, responders to Fp9 or Fp14 pool via both proliferation and IFNγ

In the case of KLYLKQSLSIANA [Fp14-4], the “cytotoxin and CD107a expression in CD4+ and CD8+ T cells (in words)” value [1] is reported as “high frequency of cytotoxin expression”, the “CD4^+ T-cell cytotoxins (4C)” value [2] is reported as “+” and the “cytotoxin expression / CTL-associated activity in CD8+ T cells (in words)” value [3] is reported as “highest frequency and levels”. The “CD8^+ T-cell cytotoxins (8C)” value ([3]; HIV^+ subjects compared to HIV^− control group) was “+” and the “HIV+ subjects whose CD8+ T cells responded with one or more cytotoxins” value ([3]; five HIV+ subjects, individual 13-15mer peptides) was “five”.
For FIV F3-3m6 (KKKSTKWRMLIDFRV), the “IFNγ (positive/total)” value (PBMC from HIV+ subjects) was 7/9 and the “CD8^+ T Proliferation (positive/total)” value [4] was 2/5.
With FIV 3-3 (KR9) (KWRMLIDFR) the “IFNγ (positive/total)” value (PBMC from HIV+ subjects) was 1/9 and the “CD8^+ T Proliferation (positive/total)” value [4] was 0/6.
In the case of FIV F3-3m5 (KKKSGKWRKLIDFRV), the “IFNγ (positive/total)” value (PBMC from HIV+ subjects) is reported as 0/9 and the “CD8^+ T Proliferation (positive/total)” value [4] is reported as 0/5.
In the case of FIV F3-3 (KV15) (KKKSGKWRMLIDFRV), the “IFNγ (positive/total)” value (PBMC from HIV+ subjects) is reported as 13/13 and the “CD8^+ T Proliferation (positive/total)” value [4] is reported as 6/9.
FIV 3-3 (WV9) (WRMLIDFRV) was tested, and the “IFNγ (positive/total)” value (PBMC from HIV+ subjects) was 8/11 and the “CD8^+ T Proliferation (positive/total)” value [4] was 1/6.
With KLYLKQSLSI [Fp14-3/4f] the “cytotoxin and CD107a expression in CD4+ and CD8+ T cells (in words)” value [1] was “high frequency of cytotoxin expression; also recorded: high cytotoxin and CD107a expression”, the Cytotoxins [1, 6] was “High Cytotoxins (The cytotoxin result is considered high when four or five subjects express one or more cytotoxins in the CD8^+ T cells)” and the “(magnitude) IFNγ” value (PBMC from HIV+ subjects; [7]) was “low (low when the frequency of response is <15% CFSE or <125 SFU)”. The “IFNγ response of HIV+ subjects (in words)” value (PBMC from HIV+ subjects; p24 pools and peptides) was “low”, the “Responder Frequency in %, IFNγ” value (PBMC from HIV+ subjects; [6]) was 40% and the “(magnitude) CD8 Proliferation” value [4, 7] was “high (high when >30 CSFE)”. For the same substance, the “CD8+ T-cell proliferation response of HIV+ subjects (in words)” value ([4]; p24 pools and peptides) was “high”, the “Responder Frequency in %, CD8 Proliferation” value [4, 6] was 100% and the “CD8^+ T-cell Responder Frequency” value [4, 8] was 10/10. For the same substance, the “CD8^+ T-cell Responder Frequency (%)” value [4, 9] was “(100) ^d %”, the “CD4+ T-cell proliferation response of HIV+ subjects (in words)” value [5] was “high” and the “(magnitude) CD4 Proliferation” value [5, 7] was “low (The average positive values are considered low when the frequency of response is <15% CFSE)”. For the same substance, the “Responder Frequency in %, CD4 Proliferation” value [5, 6] was 60%, the “CD4^+ T-cell Responder Frequency” value [5, 8] was 6/10 and the “CD4^+ T-cell Responder Frequency (%)” value [5, 9] was “(60) ^d %”.
For FIV F3-3m2 (KKKDSGKWRMLIDFRV), the “IFNγ (positive/total)” value (PBMC from HIV+ subjects) was 7/9 and the “CD8^+ T Proliferation (positive/total)” value [4] was 2/5.
For FIV F3-3m1 (KKKDSGKWRMLIDFR), the “IFNγ (positive/total)” value (PBMC from HIV+ subjects) was 0/9 and the “CD8^+ T Proliferation (positive/total)” value [4] was 1/5.
